{
  "source": "patent US9351941B2",
  "about": "“Radiofrequency-induced synchronization of in situ hyperthermia and chemotherapy via magnetic-nanoconjugates” (National Cheng Kung University, priority 2012, dated 2016)",
  "tested_on": "tumor",
  "experiment": "targeting hyperthermia and chemotherapy through tail vein injection with RF treatment (FIG. 8)",
  "assay_type": "in vivo, C3H/HeN mice",
  "conditions": "5-FU injection alone, 770 nM, equivalent to total nanoparticle loaded drugs",
  "experimental": "In addition, in an embodiment according to the present invention, targeting hyperthermia and chemotherapy through tail vein injection of the 5-FU-loaded Fe3O4@anti-HER2 nanoparticle (500 μg/mL) in a serial single daily dose for four consecutive days are evaluated. RF treatments are given 24 h after the nanoparticle had been injected. […] This indicates nanoparticle accumulation within tumor dissipate sufficient heat to generate hyperthermia effect.\nGroups of male C3H/HeN mice 6-8 weeks old in this experiment were given a tail-vein injection of 200 μL 5-FU-loaded Fe3O4@anti-HER2 magnetic nanoparticle in PBS ([…]) or of PBS alone. One group of mice was sacrificed 24 h after the tail-vein injection. The rest of the mice were given 15 min RF treatment 24 h after the tail-vein injection. Twenty-four hours after the RF treatment, the mice were overdosed with the anesthetics ketamine and xylazine (8.7 mg/100 g and 1.3 mg/100 g), and their major organs (brain, heart, lungs, spleen, liver, kidneys) and blood were collected. Each organ was homogenized and dissolved in nitro-hydrochloric acid. The sample solutions were continuously shaken for two days to ensure Fe dissociation. All samples were filtered before analyzed using atomic absorption spectrometer (Solar M6 series; Unicam, UK). […]",
  "data": [
    {"smiles": "O=c1[nH]cc(F)c(=O)[nH]1", "note": "[5-FU, 5-fluorouracil]", "values": [
      {"measurement": "tumor growth", "value": "unable to suppress tumor growth"}
    ]}
  ]
}
